According to patent publication US20260207626A1, “SYNTHETIC TRITERPENOIDS AND COMPOSITIONS THEREOF IN WEIGHT MANAGEMENT, SKELETAL MUSCLE FUNCTION, AND APPETITE SUPPRESSION” (The Board of Regents of the University of Texas System, priority 2022, published 2026):
Entries after “also recorded” stand apart in the source; their conditions may differ.

Experiments:
THP-1 macrophages = test: Bio-Plex Pro human 17-plex cytokine/chemokine panel in THP-1 macrophages exposed to CDDO-EA and LPS; format: cell-based
Method: THP-1 monocytes were plated in 24-well plate at 15×10^4 cells/0.5 ml/well in growth medium plus 100 ng/ml PMA into each well and cultured at 37° C. with 5% CO2 incubator for 48 h for differentiation to macrophages. […] Supernatants were collected and stored at −80° C. until analysis. Cytokines and chemokines were measured and quantified using a Bio-Plex Pro human cytokines group I, 17-plex ELISA Kit (Bio-Rad) according to the manufacturer's instructions.

[1] = Body weight of mice fed LFD or HFD with or without CDDO-EA in the chow for 6 weeks; format: in vivo, C57B16/J mice
From the text: To assess the protective effects of CDDO-EA from obesity and insulin resistance, C57B16/J mice (6-8 weeks old, male, strain #000664, The Jackson Laboratory) were used. The animals were fed a Low Fat diet (LFD) (10% total calories from fat, […]) or a High Fat diet (HFD) (60% of total calories from fat) incorporated with or without CDDO-EA (chow containing 0.04% CDDO-EA) for six weeks. Feeding groups: The mice were put into one of four groups: • (i) HFD (60% total calories from fat), • (ii) HFD+0.04% CDDO-EA, • (iii) LFD (10% total calories from fat), • (iv) LFD+0.04% CDDO-EA. Unlike Shin et al. and Camer et al., where the CDDO was administered via gavage or in the drinking water, the present studies provide for a feed material (veterinary chow mix) formulated to include 400 mg CDDO-EA in 1 kilogram of veterinary chow, which is 0.04% CDDO-EA in 1 kilogram of veterinary chow. […] This is because the amount of chow without CDDO-EA (LFD) consumed by the animals was approximately the same amount of chow with CDDO-EA consumed by the animals (LFD+CDDO-EA) (See Table 3). Data were statistically analyzed by One-Way ANOVA, Two-Way ANOVA with repeated measures, or Two-Way ANOVA with Tukey's multiple comparison test. Throughout the collection of blood samples, OGTTs, and measurement of bodyweight, mice were unrestrained and awake. Blood samples were collected via tail snip before start of experimental feeding and then every two weeks. Oral glucose tolerance tests (OGTTs) were performed after the six-week experimental feeding, and blood samples were collected via tail snip during the OGTT. For OGTT, mice were given 2 g of glucose/kg of body weight by gavage after a five hour fast (36). Glucose levels were measured using a glucometer (Contour), and insulin concentrations were measured using an ELISA (Mercodia). Mice were weighed once a week. Glucose and insulin serum levels were measured every two weeks.

GLUT4 = test: Colorimetric assay of cell surface GLUT4 in L6GLUT4myc myotubes (preliminary data); format: cell-based, rat; settings: FIG. 30
Method: Is CDDO-EA-mediated GLUT4 translocation dependent on AMPK activation? The catalytic subunit alpha-1 (α1) of AMPK will be KD by siRNA. Cells will be treated with CDDO-EA (500 nM, 1 hour), insulin ([…] for 15 min), or insulin and CDDO-EA to determine if there is a synergistic effect on GLUT4 translocation. Also, cells will be treated with the AMPK activator, 5-aminoimidazole-4-carboxamide ribonucleoside (AICAR, 1 mM, 40 minutes), as a positive control. We will use a colorimetric assay to quantitatively measure the levels of cell surface GLUT4 in 3T3-L1 adipocytes and L6GLUT4myc myotubes^37. […] GLUT4 translocation will be detected via immunofluorescence. Subcellular protein fractionation will be conducted to detect GLUT4 in the sarcolemma for myotubes and plasma membrane for adipocytes and GLUT2 in the plasma membrane of hepatocytes via Western blotting. GLUT2 will be measured in hepatocytes because GLUT2 is the most abundant glucose transporter in hepatocytes^38. To measure glucose uptake, a non-radioactive, plate-based bioluminescent assay (Glucose Uptake-Glo, Promega) will be performed. Using Glucose Uptake-Glo, insulin induces glucose uptake in L6GLUT4my myotubes. Phosphorylation of AMPK at Thr^172 and phosphorylation of ACC at Ser^79 indicates activation of the AMPK pathway. Thus, phosphorylation of AMPK Thr^172 and ACC Ser^79 will be shown through Western blotting. […]

[2] = Food intake in mice fed HFD with or without CDDO-EA, LFD or HFD pair-fed; format: in vivo, C57BL/6J mice; settings: HFD + CDDO-EA (0.04%) vs ad libitum HFD
From the text: C57BL/6J mice were fed a HFD with or without incorporation of CDDO-EA (diet containing 0.04% CDDO-EA) or LFD or HFD pair-fed for 6 weeks (n=5). Food intake data points in week 1 are not recorded when mice were in the Prometheion. Data are represented as mean±SEM (Two-way Repeated Measures ANOVA). *p<0.05; **p<0.01 vs. HFD pair-fed; ? p<0.01 vs. HFD+CDDO-EA; ##p<0.01 vs. LFD ad lib.
C57BL/6J mice (6-8 weeks old, male, strain #000664, The Jackson Laboratory) were divided into four (4) groups (i)-(iv)): (i) ad libitum Low fat caloric content (LFD-10% of total calories from fat caloric content, #TD.08806, Envigo), (ii) ad libitum HFD (60% of total calories from fat caloric content, #TD.06414, Envigo), (iii) HFD+CDDO-EA (diet containing 0.04% CDDO-EA), and (iv) HFD pair-fed to food intake of mice fed HFD+CDDO-EA. The study was for 6 weeks (42 days) (performed at Vanderbilt Metabolic Mouse Phenotyping Center (VMMPC)). Mice were singly housed in a Promethion Metabolic Analyzer and were monitored continuously for 7 days to assess feeding and EE.

[3] = 500 nM CDDO-EA for 1 hr then 100 ng/ml LPS for 6 hr

CCNC(=O)[C@]12CCC(C)(C)C[C@H]1C1C(=O)C=C3[C@@]4(C)C=C(C#N)C(=O)C(C)(C)[C@@H]4CC[C@@]3(C)[C@]1(C)CC2 (stereo partly drawn) [CDDO-EA, (4aS,6aR,6bS,8aR,12aS,14bS)-11-cyano-N-ethyl-2,2,6a,6b,9,9,12a-heptamethyl-10,14-dioxo-1,3,4,5,6,6a,6b, 7,8,8a,9,10,12a, 14,14a, 14b-hexadecahydropicene-4a (2H)-carboxamide]
LPS-induced IL-1β, IL-6 and MCP-1 production (THP-1 macrophages; 500 nM CDDO-EA 1 hour then 100 ng/ml LPS 6 hours): primarily inhibited LPS-induced IL-1B, IL-6 and MCP-1 production; also recorded: blocks LPS induced IL-1β, IL-6, and MCP-1 secretion | IFN-γ (THP-1 macrophages; 500 nM CDDO-EA alone, no LPS): 24.78 ± 20.55 pg/mL | IL-1β (THP-1 macrophages; 500 nM CDDO-EA alone, no LPS): 2.19 ± 1.49 pg/mL | IL-4 (THP-1 macrophages; 500 nM CDDO-EA alone, no LPS): 0.21 ± 0.12 pg/mL | IL-6 (THP-1 macrophages; 500 nM CDDO-EA alone, no LPS): 0.12 ± 0.02 pg/mL | IL-8 (THP-1 macrophages; 500 nM CDDO-EA alone, no LPS): 6339.67 ± 1535.18 pg/mL | IL-17 (THP-1 macrophages; 500 nM CDDO-EA alone, no LPS): 22.72 ± 9.47 pg/mL | MCP-1 (THP-1 macrophages; 500 nM CDDO-EA alone, no LPS): 2.11 ± 1.35 pg/mL | MIP-1β (THP-1 macrophages; 500 nM CDDO-EA alone, no LPS): 3763.83 ± 1229.25 pg/mL | TNF-α (THP-1 macrophages; 500 nM CDDO-EA alone, no LPS): 128.33 ± 38.63 pg/mL | G-CSF (THP-1 macrophages; [3]): 10.72 ± 4.71 pg/mL | IFN-γ (THP-1 macrophages; [3]): 114.38 ± 5.43 pg/mL | IL-1β (THP-1 macrophages; [3]): 64.65 ± 17.12 pg/mL | IL-2 (THP-1 macrophages; [3]): 4.09 ± 1.51 pg/mL | IL-4 (THP-1 macrophages; [3]): 1.55 ± 0.18 pg/mL | IL-6 (THP-1 macrophages; [3]): 12.67 ± 5.50 pg/mL | IL-8 (THP-1 macrophages; [3]): 9691.33 ± 1268.42 pg/mL | IL-12 (THP-1 macrophages; [3]): 2.00 ± 1.00 pg/mL | IL-17 (THP-1 macrophages; [3]): 40.16 ± 8.13 pg/mL | MCP-1 (THP-1 macrophages; [3]): 11.05 ± 1.65 pg/mL | MIP-1β (THP-1 macrophages; [3]): 11212.50 ± 877.01 pg/mL | TNF-α (THP-1 macrophages; [3]): 8237.33 ± 1137.80 pg/mL | difference in weight between mice fed a high fat diet and mice fed a high fat diet incorporated with CDDO-EA ([1]; 0.04% CDDO-EA, 6 weeks): 66.8% | Average Weight (g) of Mice ([1]; HFD + CDDO-EA (0.04%), week 1): 23.4 ± 0.5 g | Average Weight (g) of Mice ([1]; HFD + CDDO-EA (0.04%), week 2): 23.2 ± 0.5 g | Average Weight (g) of Mice ([1]; HFD + CDDO-EA (0.04%), week 3): 24.6 ± 0.5 g | Average Weight (g) of Mice ([1]; HFD + CDDO-EA (0.04%), week 4): 24.1 ± 0.5 g | Average Weight (g) of Mice ([1]; HFD + CDDO-EA (0.04%), week 5): 25.4 ± 0.5 g | Average Weight (g) of Mice ([1]; HFD + CDDO-EA (0.04%), week 6): 25.3 ± 0.5 g | body weight gain / obesity ([1]; HFD + CDDO-EA (400 mg/kg diet, 0.04%), 6 weeks): did not have a significant increase in body weight; also recorded: significantly blocked gain weight; also recorded: prevented the excess weight gain; also recorded: inhibits weight gain and obesity in vivo; also recorded: did not evidence a significant weight gain; also recorded: prevents obesity | Average Weight (g) of Mice ([1]; HFD + CDDO-EA (diet containing 0.04% CDDO-EA), week 0): 23.8 ± 0.5 g | significant weight gain prevented ([1]; HFD incorporated with 0.04% CDDO-EA): 66.8% | Average Weight (g) of Mice ([1]; LFD + CDDO-EA (0.04%), week 1): 24.4 ± 0.9 g | Average Weight (g) of Mice ([1]; LFD + CDDO-EA (0.04%), week 2): 24.4 ± 0.8 g | Average Weight (g) of Mice ([1]; LFD + CDDO-EA (0.04%), week 3): 25.8 ± 0.7 g | Average Weight (g) of Mice ([1]; LFD + CDDO-EA (0.04%), week 4): 25.4 ± 0.7 g | Average Weight (g) of Mice ([1]; LFD + CDDO-EA (0.04%), week 5): 26.4 ± 0.6 g | Average Weight (g) of Mice ([1]; LFD + CDDO-EA (0.04%), week 6): 26.0 ± 0.4 g | Average Weight (g) of Mice ([1]; LFD + CDDO-EA (diet containing 0.04% CDDO-EA), week 0): 25.5 ± 1.0 g | GLUT4 translocation to the cell surface (colorimetry assay) (GLUT4): induce GLUT4 translocation to the cell surface | food intake [2]: prevented an increase in food intake; also recorded: decreases food intake
